How the values were obtained:
rat FAAH = target: T1, rat FAAH (Rattus norvegicus, UniProt P97612); test: Assay Method 2: FAAH assay, 3H-anandamide hydrolysis in homogenate of cells transfected with rat FAAH; type: biochemical; conditions: cell homogenate, 3H-AEA 80 nM, 1 h at rt, average of results
T1 construct: expressed in transfected cells; crude homogenate
T1 sequence (P97612 1-579): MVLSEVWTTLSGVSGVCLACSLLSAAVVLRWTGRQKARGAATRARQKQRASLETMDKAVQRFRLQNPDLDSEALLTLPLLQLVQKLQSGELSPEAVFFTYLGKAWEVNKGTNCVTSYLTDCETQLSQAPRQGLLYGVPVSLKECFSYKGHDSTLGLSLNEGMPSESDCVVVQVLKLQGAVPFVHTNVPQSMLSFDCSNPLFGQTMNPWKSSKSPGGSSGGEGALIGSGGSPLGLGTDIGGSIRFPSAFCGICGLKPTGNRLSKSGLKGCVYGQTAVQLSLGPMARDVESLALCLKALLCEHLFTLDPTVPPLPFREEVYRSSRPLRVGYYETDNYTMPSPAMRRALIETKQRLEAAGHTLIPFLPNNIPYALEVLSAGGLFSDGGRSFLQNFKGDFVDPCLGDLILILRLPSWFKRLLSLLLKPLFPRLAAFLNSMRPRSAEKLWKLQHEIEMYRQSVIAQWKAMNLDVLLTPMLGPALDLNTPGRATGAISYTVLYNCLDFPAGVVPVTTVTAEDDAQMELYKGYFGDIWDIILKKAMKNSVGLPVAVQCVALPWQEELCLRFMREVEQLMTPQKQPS
How it was run: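 Homogenate of SK-N-MC cells stably transfected with rat FAAH, in pH 9 Tris/EDTA/glycerol/Triton buffer, incubated 1 h at rt with 80 nM final [1-3H-ethanolamine]anandamide. Released 3H-ethanolamine separated from substrate on activated charcoal filters by centrifugation and quantified by scintillation counting.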

FAAH = target: T2, FAAH (Homo sapiens, UniProt O00519); test: Assay Method 1: FAAH assay, 3H-anandamide hydrolysis in homogenate of cells transfected with human FAAH; type: biochemical; design: expressed in transfected cells; crude homogenate (T84 cell pellets named as alternative); conditions: cell homogenate, 3H-AEA 80 nM, 1 h at rt, average of results
T2 sequence (O00519 1-579): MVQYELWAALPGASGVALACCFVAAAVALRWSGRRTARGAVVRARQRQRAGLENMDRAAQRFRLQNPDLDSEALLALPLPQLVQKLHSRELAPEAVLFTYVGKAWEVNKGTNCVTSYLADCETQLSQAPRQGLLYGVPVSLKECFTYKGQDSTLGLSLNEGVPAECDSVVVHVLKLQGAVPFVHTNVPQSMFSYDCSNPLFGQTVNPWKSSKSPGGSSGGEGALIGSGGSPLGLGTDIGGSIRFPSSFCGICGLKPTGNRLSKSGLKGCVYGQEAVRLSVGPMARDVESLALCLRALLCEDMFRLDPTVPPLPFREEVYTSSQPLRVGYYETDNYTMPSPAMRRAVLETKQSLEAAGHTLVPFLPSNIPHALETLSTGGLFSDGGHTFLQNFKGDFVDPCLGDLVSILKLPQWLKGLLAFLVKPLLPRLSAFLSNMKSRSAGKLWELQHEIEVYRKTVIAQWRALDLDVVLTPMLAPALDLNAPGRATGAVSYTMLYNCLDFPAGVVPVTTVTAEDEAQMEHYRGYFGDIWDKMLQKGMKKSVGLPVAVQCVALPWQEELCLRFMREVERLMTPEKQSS
How it was run: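 Homogenates of SK-N-MC cells stably transfected with human FAAH (or T84 cells) in pH 9 Tris/EDTA/glycerol/Triton buffer, incubated with compound and 80 nM final ^3H-anandamide for 1 h at rt. Released ^3H-ethanolamine separated through activated charcoal by centrifugation and counted by scintillation.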

| Compound | IC50 (rat FAAH) [nM] | IC50 (FAAH) [nM] |
| --- | --- | --- |
| O=C(Nc1cccnc1)N1CC(CCOc2ccc(Cl)c(C(F)(F)F)c2)C1 [Example 45, 3-[2-(4-Chloro-3-trifluoromethyl-phenoxy)-ethyl]-azetidine-1-carboxylic acid pyridin-3-ylamide] | 43 | 700 |
| O=C(Nc1cccnc1)N1CC(COc2ccc3c(c2)CCCC3)C1 [Example 13, 3-(5,6,7,8-Tetrahydro-naphthalen-2-yloxymethyl)-azetidine-1-carboxylic acid pyridin-3-ylamide] | 1700 | 2500 |
| O=C(Nc1cccnc1)N1CCC(CCc2ccc3c(c2)OC(F)(F)O3)C1 (stereo not shown) [Example 77, 3-[2-(2,2-Difluoro-benzo[1,3]dioxol-5-yl)-ethyl]-pyrrolidine-1-carboxylic acid pyridin-3-ylamide] | 7000 | 5000 |
| O=C(Nc1cccnc1)N1CC(CCOc2cccc(OC(F)(F)F)c2)C1 [Example 31, 3-[2-(3-Trifluoromethoxy-phenoxy)-ethyl]-azetidine-1-carboxylic acid pyridin-3-ylamide] | 900 | 3000 |
| O=C(Nc1cnccc1Cl)N1CC[C@@H](COc2cccc(Oc3ccc(Cl)cc3)c2)C1 [Example 56, (3R)-3-[3-(4-Chloro-phenoxy)-phenoxymethyl]-pyrrolidine-1-carboxylic acid (4-chloro-pyridin-3-yl)-amide] | 2 | 4 |
| O=C(Nc1cnccc1Cl)N1CCC(CCc2ccc3c(c2)OC(F)(F)O3)C1 (stereo not shown) [Example 78, 3-[2-(2,2-Difluoro-benzo[1,3]dioxol-5-yl)-ethyl]-pyrrolidine-1-carboxylic acid (4-chloro-pyridin-3-yl)-amide] | 320 | 230 |

Results, then the compound that gave them:

| IC50 (rat FAAH) [nM] | IC50 (FAAH) [nM] | Compound |
| --- | --- | --- |
| 4 | 3 | O=C(Nc1cnc2[nH]ccc2c1)N1CC(CCOc2cccc(Oc3ccc(Cl)cc3)c2)C1 [Example 40, 3-{2-[3-(4-Chloro-phenoxy)-phenoxy]-ethyl}-azetidine-1-carboxylic acid (1H-pyrrolo[2,3-b]pyridin-5-yl)-amide] |
| 500 | 1300 | O=C(Nc1cccnc1)N1CC(COc2ccc3cccc(Cl)c3n2)C1 [Example 22, 3-(8-Chloro-quinolin-2-yloxymethyl)-azetidine-1-carboxylic acid pyridin-3-ylamide] |
| 615 | 1600 | O=C(Nc1cccnc1)N1CC(CCOc2cccc(C(F)(F)F)c2)C1 [Example 46, 3-[2-(3-Trifluoromethyl-phenoxy)-ethyl]-azetidine-1-carboxylic acid pyridin-3-ylamide] |
| 700 | 300 | O=C(Nc1cnccc1Cl)N1CCC(CCOc2ccc(Cl)c(Cl)c2)C1 (stereo not shown) [Example 58, 3-[2-(3,4-Dichloro-phenoxy)-ethyl]-pyrrolidine-1-carboxylic acid (4-chloro-pyridin-3-yl)-amide] |
| 24 | 30 | O=C(Nc1cnc2ccccn12)N1CC(CCOc2cccc(Oc3ccc(Cl)cc3)c2)C1 [Example 42, 3-{2-[3-(4-Chloro-phenoxy)-phenoxy]-ethyl}-azetidine-1-carboxylic acid imidazo[1,2-a]pyridin-3-ylamide] |
| 630 | 600 | O=C(Nc1cccnc1)N1CCC(CCOc2cccc(Oc3ccc(Cl)cc3)c2)C1 (stereo not shown) [Example 63, 3-{2-[3-(4-Chloro-phenoxy)-phenoxy]-ethyl}-pyrrolidine-1-carboxylic acid pyridin-3-ylamide] |
| 97 | 9 | CS(=O)(=O)c1ccc(Oc2cccc(OCC3CCN(C(=O)Nc4cnccc4Cl)C3)c2)cc1 (stereo not shown) [Example 50, N-(4-Chloropyridin-3-yl)-3-({3-[4-(methylsulfonyl)phenoxy]phenoxy}methyl)pyrrolidine-1-carboxamide] |
| 430 | 200 | O=C(Nc1cccnc1)N1CC(CCOc2ccc3ccccc3n2)C1 [Example 36, 3-[2-(Quinolin-2-yloxy)-ethyl]-azetidine-1-carboxylic acid pyridin-3-ylamide] |

From patent publication US8901111B2, “Aryl-substituted heterocyclic urea modulators of fatty acid amide hydrolase” (Janssen Pharmaceutica NV, priority 2009, dated 2014)
